Data as given in ChEMBL document CHEMBL3301361, “Experimental in vitro DMPK and physicochemical data on a set of publicly disclosed compounds”.
Values after ≈ are worked out from the molar mass of the structure shown.

Tests used:
[1] = physchem; conditions: octan-1-ol/water, pH 7.4, LogD7.4
[2] = in vitro; conditions: Dunkin Hartley, guinea pig, plasma
[3] = in vitro; conditions: hepatocytes
[4] = in vitro; conditions: SD, HW or BN, rat, plasma
[5] = in vitro; conditions: human
[6] = physchem; conditions: pH 7.4 buffer
[7] = in vitro; conditions: human, plasma
[8] = in vitro; conditions: human, hepatocytes
[9] = in vitro; conditions: Beagle, dog, plasma
[10] = in vitro; conditions: mouse, plasma
[11] = physchem

Compound `COc1cccc2c1c(NS(=O)(=O)c1ccc(Cl)s1)nn2Cc1cccc(CNC(=O)C(C)(C)O)c1` has a logD [1] of 2.09, a fraction unbound at 5 h [2] of 0.035 and a hepatocyte CLint [3] of 25 µL/min/1e6 cells. For the same compound, the fraction unbound at 5 h [4] was 0.0082, the microsomal CLint ([5]; liver microsomes) was 50 µL/min/mg and the solubility thermodynamic [6] was 81.3 µM (≈ 44.6 µg/mL). For the same compound, the fraction unbound at 5 h ([7]; PPB) was 0.0133 and the hepatocyte CLint [8] was 40 µL/min/1e6 cells.

Compound `O=c1[nH]c2c(O)ccc([C@@H](O)CNCCc3cccc(CNCCc4ccccc4F)c3)c2s1` has a logD [1] of 1.06, a fraction unbound at 5 h [2] of 0.107 and a hepatocyte CLint [3] of 22 µL/min/1e6 cells. The fraction unbound at 5 h [4] was 0.134, the microsomal CLint ([5]; liver microsomes) was 17 µL/min/mg and the hepatocyte CLint [8] was < 3 µL/min/1e6 cells.

Compound `N=C(NCCCCc1ccc(OCC(O)CO)cc1)NC(=O)c1nc(Cl)c(N)nc1N` (centres undefined) [552-02 FREE BASE] has a fraction unbound at 5 h [2] of 0.299, a fraction unbound at 5 h [4] of 0.314 and a fraction unbound at 5 h ([7]; PPB) of 0.249.

With `CCCCN(CCNCCc1ccc(O)c2[nH]c(=O)sc12)C(=O)CCOCCc1ccccc1` the logD [1] was 3, the fraction unbound at 5 h [2] was 0.17 and the hepatocyte CLint [3] was > 150 µL/min/1e6 cells. For the same compound, the fraction unbound at 5 h [4] was 0.0705, the microsomal CLint ([5]; liver microsomes) was 141 µL/min/mg and the fraction unbound at 5 h ([7]; PPB) was 0.0532. The hepatocyte CLint [8] was 25.9 µL/min/1e6 cells.

With `O=C(c1c[nH]c(=O)c2ccccc12)N1CCC(N2CCC(Oc3ccc(Cl)c(Cl)c3)CC2)CC1` the logD [1] was 3.51, the fraction unbound at 5 h [2] was 0.17 and the fraction unbound at 5 h [9] was 0.0488. It also gave a fraction unbound at 5 h ([7]; PPB) of 0.089.

Compound `C[C@H](Cc1cccc(CC(=O)NC23CC4CC(CC(C4)C2)C3)c1)NC[C@H](O)c1ccc(O)c(CO)c1` has a logD [1] of 2.4, a fraction unbound at 5 h [2] of 0.208 and a hepatocyte CLint [3] of 43 µL/min/1e6 cells. It also gave a fraction unbound at 5 h [4] of 0.134, a microsomal CLint ([5]; liver microsomes) of 129 µL/min/mg and a hepatocyte CLint [8] of 21.9 µL/min/1e6 cells.

With `C[C@@](C(=O)O[C@H]1C[N+]2(CCc3ccccc3)CCC1CC2)(c1ccccc1)N1CCCCC1` the fraction unbound at 5 h [2] was 0.129, the hepatocyte CLint [3] was 76 µL/min/1e6 cells and the fraction unbound at 5 h [4] was 0.22.

For `Cc1cc(CCC[N+]23CCC(CC2)[C@@H](OC(=O)[C@](C)(c2ccccc2)N2CCCCC2)C3)ccn1`, the fraction unbound at 5 h [2] was 0.529 and the hepatocyte CLint [3] was 36.1 µL/min/1e6 cells.

`C[C@@](C(=O)O[C@H]1C[N+]2(CC(=O)Nc3ccccc3)CCC1CC2)(c1ccccc1)N1CCCCC1` gave a fraction unbound at 5 h [2] of 0.0499 and a hepatocyte CLint [3] of 64 µL/min/1e6 cells.

In the case of `COc1ccc(Cl)cc1C(=O)NCCc1ccc(S(=O)(=O)NC(=O)NC2CCCCC2)cc1` [GLYBURIDE], the logD [1] is reported as 2.23, the fraction unbound at 5 h [10] is reported as 0.0027 and the fraction unbound at 5 h [4] is reported as 0.0012. It also gave a microsomal CLint ([5]; liver microsomes) of 22 µL/min/mg, a solubility thermodynamic [6] of 10.5 µM (≈ 5.19 µg/mL) and a fraction unbound at 5 h ([7]; PPB) of 0.0012. The pKa [11] was 3.76 and the hepatocyte CLint [8] was 14.4 µL/min/1e6 cells.

In the case of `CC(C)N(CCNCCc1ccc(O)c2[nH]c(=O)sc12)C(=O)CCOCCc1ccccc1`, the logD [1] is reported as 2.33, the fraction unbound at 5 h [2] is reported as 0.0752 and the hepatocyte CLint [3] is reported as 99 µL/min/1e6 cells. The microsomal CLint ([5]; microsomes) was 60 µL/min/mg and the fraction unbound at 5 h ([7]; PPB) was 0.028.

`COCCN(c1cccnc1)P(=O)(c1ccccc1)c1ccccc1` gave a fraction unbound at 5 h [2] of 0.58, a fraction unbound at 5 h [4] of 0.376 and a fraction unbound at 5 h [7] of 0.0872.

With `O=CNc1cc([C@@H](O)CNCCc2ccc(NC[C@H](O)c3ccccc3)cc2)ccc1O` [MILVETEROL] the logD [1] was 0.02, the fraction unbound at 5 h [2] was 0.194 and the fraction unbound at 5 h ([7]; PPB) was 0.285. For the same compound, the hepatocyte CLint [8] was < 3 µL/min/1e6 cells.

For `CCCNC(c1cccnc1)P(=O)(c1ccccc1)c1ccccc1` (centres undefined), the fraction unbound at 5 h [2] was 0.19, the fraction unbound at 5 h [4] was 0.173 and the fraction unbound at 5 h [9] was 0.197.

With `CC(C)C[C@H](CO)Nc1nc(S[C@@H](C)c2ccccc2F)nc2nc(N)sc12` the fraction unbound at 5 h [10] was 0.002, the fraction unbound at 5 h [9] was 0.002 and the fraction unbound at 5 h ([7]; PPB) was 0.0011. The hepatocyte CLint [8] was 30.9 µL/min/1e6 cells.

With `COc1ccccc1CCNCc1cccc(CCNC[C@H](O)c2ccc(O)c3[nH]c(=O)sc23)c1` the logD [1] was 0.82, the fraction unbound at 5 h [2] was 0.276 and the fraction unbound at 5 h [4] was 0.0836.

In the case of `O=c1[nH]c2c(O)ccc([C@@H](O)CNCCCSCCOCCc3cccc4ccccc34)c2s1`, the logD [1] is reported as 3.12, the fraction unbound at 5 h [2] is reported as 0.0088 and the hepatocyte CLint [3] is reported as 85 µL/min/1e6 cells. It also gave a fraction unbound at 5 h [4] of 0.0082, a microsomal CLint ([5]; liver microsomes) of 70 µL/min/mg and a fraction unbound at 5 h ([7]; PPB) of 0.0067. It also gave a hepatocyte CLint [8] of 14.8 µL/min/1e6 cells.

For `COc1nc(Br)cnc1NS(=O)(=O)c1ccc(Cl)s1`, the logD [1] was 0.99, the fraction unbound at 5 h [10] was 0.0191 and the fraction unbound at 5 h [4] was 0.002. It also gave a fraction unbound at 5 h [9] of 0.0124, a solubility thermodynamic [6] of 891 µM (≈ 343 µg/mL) and a fraction unbound at 5 h ([7]; PPB) of 0.0013. For the same compound, the pKa [11] was 4.1.

For `CCCN(c1cccc(S(C)(=O)=O)c1)P(=O)(c1ccccc1)c1ccccc1`, the fraction unbound at 5 h [2] was 0.289, the fraction unbound at 5 h [4] was 0.186 and the fraction unbound at 5 h [7] was 0.0321.

With `COc1cccc(CNCc2cccc(CCNC[C@H](O)c3ccc(O)c4[nH]c(=O)sc34)c2)c1` the logD [1] was 0.91, the fraction unbound at 5 h [2] was 0.216 and the fraction unbound at 5 h [4] was 0.154. It also gave a microsomal CLint ([5]; liver microsomes) of 35 µL/min/mg and a fraction unbound at 5 h ([7]; PPB) of 0.137.

Compound `O=c1[nH]c2c(O)ccc(CCNCCS(=O)(=O)CCCOCCc3ccccc3)c2s1` [SIBENADET] has a logD [1] of 2.61, a fraction unbound at 5 h [2] of 0.101 and a hepatocyte CLint [3] of 91 µL/min/1e6 cells. It also gave a fraction unbound at 5 h [4] of 0.0784, a microsomal CLint ([5]; microsomes) of 111 µL/min/mg and a fraction unbound at 5 h ([7]; PPB) of 0.0556.
